# Laboratory results reported in patent publication US10124035B2, “DISC-1 pathway activators in the control of neurogenesis” (Massachusetts Institute of Technology, priority 2008, dated 2018).
# Tests used:
# [1] = system: DISC1 shRNA infected mice; test: Elevated plus-maze; format: in vivo, mouse; details: lentivirus in adult dentate gyrus
# Method: Alterations in neurogenesis are implicated in the development of depression and other abnormal behaviors. To examine the behavioral consequences of disrupting the DICS1/GSK3β pathway, we silenced DISC1 expression in the adult dentate gyms and evaluated behavioral consequences. Four weeks after the injection of control or DISC1 shRNA-1 lentivirus, mice were treated with vehicle or SB-216763 (2 mg/kg i.p.) every other day for 10 days. […] DISC1 shRNA injected mice traveled a greater distance and spent more time moving in a novel open field than control mice (FIG. 17A). These behaviors were normalized by SB-216763 treatment. We further tested whether DISC1 loss-of-function had consequences on depression-like behavior in the forced swim test. […] Importantly, swimming velocity was unchanged. […] Thus, increased GSK3β activity caused by DISC1 loss-of-function is associated with schizophrenia- and depression-like behaviors.
# AHPs = test: Immunoblot of β-catenin and cyclin D1 in transduced AHPs; format: cell-based
# Description: • Mice. Swiss Webster pregnant female mice were purchased from Taconic (Hudson, N.Y.). • Cell Culture. AHPs were kindly provided by Dr. Gage (Lie, D. C. et al. Wnt signaling to regulates adult hippocampal neurogenesis. Nature 437, 1370-5 (2005)) and cultured under conditions described previously (Palmer, T. D., Takahashi, J. & Gage, F. H. The adult rat hippocampus contains primordial neural stem cells. Mol Cell Neurosci 8, 389-404 (1997)). Primary neural progenitors were isolated from E14 mouse embryos and cultured as described previously (Sanada, K. & Tsai, L. H. G protein betagamma subunits and AGS3 control spindle orientation and asymmetric cell fate of cerebral cortical progenitors. Cell 122, 119-31 (2005)). N2a and 293T cells were cultured in DMEM medium containing 10% FBS, L-glutamine, and penicillin/streptomycin. Wnt3a expressing L cells and untransfected L cells were obtained from ATCC (Manassas, Va.). Wnt3a conditional medium was produced according to the ATCC protocol. To induce AHP differentiation, FGF2 was removed from the culture medium and 1 μM retinoic acid/1% FBS was added to the medium for 4 days. • Reagents. Recombinant Wnt3a protein was obtained from Chemicon (Rosemont, Ill.). FGF2 was obtained from PeproTech (Rocky Hill, N.J.). Recombinant GST-GSK3β was obtained from Active Motif (Carlsbad, Calif.). Recombinant GST-β-catenin and GST-axin were obtained from Millipore (Billerica, Mass.). The GSK313 inhibitor, SB-216763, AR-A104418 and His-GSK3β, were obtained from Sigma-Aldrich (Sigma-Aldrich, St. Louis, Mo.). L803-MTS was obtained from Calbiochem (San Diego, Calif.). GST-AKT1 was obtained from Cell Signaling (Beverly, Mass.). GST-CASK-1 (CASK fragment from 316-415aa), GST-CASK-2 (CASK fragment from 777-974aa), and GST-p25 proteins were kindly provided by Dr. B. A. Samuels. Mouse DISC1 peptidel (40-78aa: GYMRSTAGSG IGFLSPAVGMPHPSSAG LTGQQSQHSQS; SEQ ID NO: 1) and Mouse DISC1 peptide 2 (195-238aa, […] GERGEAEGCLPSREAE; SEQ ID NO: 2) were synthesized by Chi Scientific (Maynard, Mass.). • Antibodies. […]
substance,measurement,setting,value
"DISC1 shRNA-1: shRNA targeting rat and mouse DISC1, SEQ ID NO:4, in pLentiLox 3.7 vector (GGCAAACACTGTGAAGTGC)",anxiety in elevated plus-maze,[1],did not display increased anxiety
same,reduction of Cyclin D1 levels,AHPs,50%
same,β-catenin levels,AHPs,35 % to control
